In patent US6417174B1, “Inhibitors of β-lactamases and uses therefor” (Northwestern University, priority 1997, dated 2002):
Like-named read-outs stand apart in the source and are kept apart here.

How the values were obtained:
[1] = molecular target: T1, TEM-1 β-lactamase from E. coli (Escherichia coli, UniProt P62593); assay: Inhibition of TEM-1 β-lactamase, spectrophotometric assay (FAP substrate); assay type: biochemical
T1 construct: gift: Natalie Strynadka, University of Alberta

[2] = tested on: β-lactamase derepressed strain of Enterobacter cloacae (Ent-Der); assay: microbe, parasite or virus in culture; assay type: cell-based; settings: for MIC of ceftazidime plus inhibitor: Table 3A, proportion 4/1, given as CAZ/inhibitor; for MIC of ceftazidime plus inhibitor / MIC of inhibitor used alone without ceftazidime: Ent. Der.; for MIC of inhibitor used alone without ceftazidime: Table 3B; for MIC of amoxicillin plus inhibitor: Table 4A, proportion 4/1; for MIC of amoxicillin plus inhibitor / MIC of inhibitor used alone without amoxicillin: Ent-Der.; for MIC of inhibitor used alone without amoxicillin: Table 4B, not tested above 128 μg/ml, “256” indicates no inhibition of cell growth; on MIC of ceftazidime plus inhibitor: values in µg/ml
Experimental: (§1) After incubation, the growth of the cells was visually inspected. The minimum inhibitory concentration (MIC) is the lowest concentration where there no cell growth was observed.
(§2) The following strains were used: Enterobacter cloacae cell line with derepressed β-lactamase production (Ent-Der), and Escherichia coli RYC1000 (araD139 D lacU169 rpsL D rib7 thiA gyrA recA56) cell lines, harboring the plasmid pBGS19 (with no β-lactamase), or the β-lactamase containing plasmids pBGAmpC (AmpC β-lactamase from E. coli; Eco-AmpC), or pBGAmpC-MHN (AmpC β-lactamase from Enterobacter cloacae; Eco-AmpCEnt). […] TEM-10 and TEM-24 differ from TEM-1 due to the following point substitutions: TEM-10 (R164S, E240K); TEM-24 (L102K, L162S, S235T, A237K). TEM-10 and TEM-24 also differ from TEM-1 in being extended spectrum enzymes (i.e., they react with a greater range of substrates than TEM-1). Also tested were clinical isolates of Pseudomonas aeruginosa. All bacterial strains and plasmids are available from Jesus Blazquez and Fernando Baquero, Servicio de Microbiologia, Hospital Ramon y Cajal, National Institute of Health, Madrid, Spain.
(§3) Several ratios, including 1:1, 2:1, 4:1, and 1:3, of β-lactam antibiotic (amoxicillin (AX) or ceftazidime (CAZ)) to boronic acid compound were used in the assays. Tazobactam (TAZO), a clinically used β-lactamase inibitor, was used as a positive control.

[3] = tested on: E. coli RYC1000 harboring plasmid pBGTEM-24 (TEM-24 β-lactamase); assay: microbe, parasite or virus in culture; assay type: cell-based, Escherichia coli; settings: for MIC of ceftazidime plus inhibitor: Table 3A, proportion 4/1, given as CAZ/inhibitor; for MIC of inhibitor used alone without ceftazidime: Table 3B; on MIC of ceftazidime plus inhibitor: values in µg/ml
Experimental: as §1, §2, §3

[4] = tested on: E. coli RYC1000 harboring pBGAmpC-E. coli producing AmpC (ECR-AmpCEc); assay: microbe, parasite or virus in culture; assay type: cell-based, Escherichia coli; settings: ECR-AmpCEc; for MIC of amoxicillin plus inhibitor: Table 4A, proportion 4/1; for MIC of inhibitor used alone without amoxicillin: Table 4B, not tested above 128 μg/ml, “256” indicates no inhibition of cell growth
Experimental: as §1, §2, §3

[5] = tested on: E. coli RYC1000 harboring pBGTEM-10 producing TEM-10 β-lactamase (EC-T10); assay: microbe, parasite or virus in culture; assay type: cell-based, Escherichia coli; settings: EC-T10; for MIC of amoxicillin plus inhibitor: Table 4A, proportion 4/1; for MIC of inhibitor used alone without amoxicillin: Table 4B, not tested above 128 μg/ml, “256” indicates no inhibition of cell growth
Experimental: as §1, §2, §3

[6] = tested on: E. coli RYC1000 harboring pBGTEM-1 producing TEM-1 β-lactamase (EC-T1); assay: microbe, parasite or virus in culture; assay type: cell-based, Escherichia coli; settings: EC-T1; for MIC of amoxicillin plus inhibitor: Table 4A, proportion 4/1; for MIC of inhibitor used alone without amoxicillin: Table 4B, not tested above 128 μg/ml, “256” indicates no inhibition of cell growth
Experimental: as §1, §2, §3

[7] = tested on: E. coli RYC1000 harboring a plasmid coding for a mutant of AmpC from Enterobacter (ECR-AmpCEnM); assay: microbe, parasite or virus in culture; assay type: cell-based, Escherichia coli; settings: for MIC of amoxicillin plus inhibitor: Table 4A, ECR-AmpCEnM, proportion 4/1; for MIC of inhibitor used alone without amoxicillin: Table 4B, ECRAmpCEnM, not tested above 128 μg/ml, “256” indicates no inhibition of cell growth
Experimental: as §1, §2, §3

[8] = tested on: E. coli RYC1000 harboring plasmid pBGAmpC-MHN (AmpC β-lactamase of Enterobacter cloacae); assay: microbe, parasite or virus in culture; assay type: cell-based, Escherichia coli; settings: for MIC of ceftazidime plus inhibitor: Table 3A, proportion 4/1, given as CAZ/inhibitor; for MIC of ceftazidime plus inhibitor / MIC of inhibitor used alone without ceftazidime: AmpC-MHN; for MIC of inhibitor used alone without ceftazidime: Table 3B; for MIC of amoxicillin plus inhibitor: Table 4A, EC-AmpCEn, proportion 4/1; for MIC of inhibitor used alone without amoxicillin: Table 4B, ECAmpCEn, not tested above 128 μg/ml, “256” indicates no inhibition of cell growth; on MIC of ceftazidime plus inhibitor: values in µg/ml
Experimental: as §1, §2, §3

[9] = tested on: E. coli RYC1000 harboring plasmid pBGS19 (no β-lactamase); assay: microbe, parasite or virus in culture; assay type: cell-based, Escherichia coli; settings: for MIC of ceftazidime plus inhibitor: Table 3A, proportion 4/1; for MIC of ceftazidime plus inhibitor / MIC of inhibitor used alone without ceftazidime: pBGS19; for MIC of inhibitor used alone without ceftazidime: Table 3B; for MIC of inhibitor used alone without amoxicillin: Table 4B, EC, not tested above 128 μg/ml, “256” indicates no inhibition of cell growth
Experimental: as §1, §2, §3

[10] = molecular target: AmpC β-lactamase from E. coli (Escherichia coli, UniProt P00811); assay: biochemical; assay type: biochemical
[11] = tested on: Pseudomonas aeruginosa-1 (clinical isolate); assay: Antibacterial activity, wider range of bacteria; assay type: cell-based; settings: Table 6
Experimental: (§4) Bacterial cell culture testing was performed and interpreted following the guidelines of the National Committee for Clinical Laboratory Standards (National Committee for Clinical Laboratory Standards. Methods for Dilution Antimicrobial Susceptibility Tests for Bacteria that Grow Aerobically. Approved Standard M7-A3. National Committee for Clinical Laboratory Standards, Villanova, Pa. 1993). After incubation, the growth of the cells was visually inspected. The minimum inhibitory concentration (MIC) is the lowest concentration where there no cell growth was observed.
(§5) All bacterial strains and plasmids are available from Jesus Blazquez and Fernando Baquero, Servicio de Microbiologia, Hospital Ramon y Cajal National Institute of Health, Madrid, Spain.

[12] = tested on: Enterobacter cloacae derrepressed (clinical isolate); assay: Antibacterial activity, wider range of bacteria; assay type: cell-based; settings: Table 6
Experimental: as §4, §5

[13] = tested on: E. coli derrepr. (clinical isolate); assay: Antibacterial activity, wider range of bacteria; assay type: cell-based; settings: Table 6
Experimental: as §4, §5

[14] = tested on: Citrobacter freundii derrepressed (clinical isolate); assay: Antibacterial activity, wider range of bacteria; assay type: cell-based; settings: Table 6
Experimental: as §4, §5

[15] = tested on: Ps. aeruginosa-2 (clinical isolate); assay: Antibacterial activity, wider range of bacteria; assay type: cell-based, Pseudomonas aeruginosa; settings: Table 6
Experimental: as §4, §5

[16] = tested on: Ps. aeruginosa-3 (clinical isolate); assay: Antibacterial activity, wider range of bacteria; assay type: cell-based, Pseudomonas aeruginosa; settings: Table 6
Experimental: as §4, §5

[17] = Tables 2A/2B, pH 7.0, 25° C., 100 μM cephalothin, read-out: Ki E. coli AmpC
[18] = Tables 2A/2B, pH 7.0, 25° C., 100 μM FAP, N.I. = no inhibition observed at an inhibitor concentration of 100 μM, read-out: Ki E. coli TEM-1

AmpC β-lactamase from E. coli, sequence (P00811 20-377): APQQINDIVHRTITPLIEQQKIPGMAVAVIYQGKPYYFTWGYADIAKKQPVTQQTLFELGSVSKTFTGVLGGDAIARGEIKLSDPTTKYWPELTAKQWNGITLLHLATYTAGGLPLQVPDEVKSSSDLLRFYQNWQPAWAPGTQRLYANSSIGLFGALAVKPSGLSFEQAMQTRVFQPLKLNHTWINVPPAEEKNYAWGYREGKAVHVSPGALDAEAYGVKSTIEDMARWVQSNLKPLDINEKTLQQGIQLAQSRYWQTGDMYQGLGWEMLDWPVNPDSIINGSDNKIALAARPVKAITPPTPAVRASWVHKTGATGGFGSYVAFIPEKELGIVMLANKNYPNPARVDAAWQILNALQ
T1 sequence (P62593 24-286 limits assumed): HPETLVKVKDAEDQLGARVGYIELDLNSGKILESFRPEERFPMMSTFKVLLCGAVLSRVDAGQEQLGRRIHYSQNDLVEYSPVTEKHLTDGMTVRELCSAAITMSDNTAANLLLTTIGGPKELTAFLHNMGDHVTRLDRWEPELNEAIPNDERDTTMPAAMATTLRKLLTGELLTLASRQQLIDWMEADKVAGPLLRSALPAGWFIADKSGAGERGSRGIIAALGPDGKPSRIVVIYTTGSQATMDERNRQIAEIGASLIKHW

Row | SMILES | MIC of ceftazidime plus inhibitor [2] | MIC of inhibitor used alone without ceftazidime [2] [µg/mL] | MIC of amoxicillin plus inhibitor [2] [µg/mL] | MIC of inhibitor used alone without amoxicillin [2] [µg/mL] | MIC of ceftazidime plus inhibitor [3] | MIC of inhibitor used alone without ceftazidime [3] [µg/mL] | MIC of amoxicillin plus inhibitor [4] [µg/mL] | MIC of inhibitor used alone without amoxicillin [4] [µg/mL] | MIC of amoxicillin plus inhibitor [5] [µg/mL] | MIC of inhibitor used alone without amoxicillin [5] [µg/mL] | MIC of amoxicillin plus inhibitor [6] [µg/mL] | MIC of inhibitor used alone without amoxicillin [6] [µg/mL] | MIC of amoxicillin plus inhibitor [7] [µg/mL] | MIC of inhibitor used alone without amoxicillin [7] [µg/mL] | MIC of ceftazidime plus inhibitor [8] | MIC of inhibitor used alone without ceftazidime [8] [µg/mL] | MIC of amoxicillin plus inhibitor [8] [µg/mL] | MIC of ceftazidime plus inhibitor [9] [µg/mL] | MIC of inhibitor used alone without ceftazidime [9] [µg/mL] | MIC of inhibitor used alone without amoxicillin [9] [µg/mL] | further results
1 | OB(O)c1cccs1 [TH2B, thiophene-2-boronic acid] | 32/8 | 256 | 64 | 128 | 128/32 | 128 | 64 | 128 | 256 | 128 | 128 | 64 | 32 | 64 | 8/2 | 128 | 32 | <0.25 | 128 | 64 | Ki [1]: 31 µM; MIC of inhibitor used alone without amoxicillin [8]: 128 µg/mL
2 | OB(O)c1cc2ccccc2c2ccccc12 [9PHNB, 9-Phenanthreneboronic acid] | 512/128 | >512 | 512 | 256 | 256/64 | 128 | 512 | 256 | 512 | 256 | 512 | 256 | 64 | 256 | 8/2 | 256 | 256 | <0.25 | 128 | 256 | Ki [10, 17]: 12.6 µM; dissociation constant relative to MAPB (AmpC) ([10]; compared with MAPB): two to three-fold worse (higher); Ki [1, 18]: 31 µM; MIC of inhibitor used alone without amoxicillin [8]: 256 µg/mL
3 | OB(O)c1cc2ccccc2s1 [BZBTH2B, benzo[b]thiophene-2-boronic acid] | 32/8 | 512 |  |  | 128/32 | 512 |  |  |  |  |  |  |  |  |  | 512 |  | <0.25 | 512 |  | MIC, agent alone (CAZ alone / BZB only) [11]: 512; MIC, agent alone (CAZ alone / BZB only) [12]: 128; MIC, agent alone (CAZ alone / BZB only) [13]: 128; MIC, agent alone (CAZ alone / BZB only) [14]: 128; MIC, agent alone (CAZ alone / BZB only) [15]: 512; MIC, agent alone (CAZ alone / BZB only) [16]: 512
4 | C1COB([C@@H]2CCOC2)OCCN1 [DETHFB, diethanolamine-(3R)-(+)-tetrahydrofurnylboronate] | 32/8 |  | 256 |  | 256/64 |  | 128 |  | 512 |  | 512 |  | 64 |  | 4/1 |  | 32 | 0.5 | >512 | 256 | Ki [10, 17]: 1.1 µM; Ki [1, 18]: 27 µM
5 | OB(O)c1ccc(-c2ccc(B(O)O)cc2)cc1 [BIPD, 4,4′-biphenyldiboronic acid] | 128/32 | >256 | 256 | 256 | 256/64 | >256 | 128 | 128 | 256 | 256 | 256 | 256 | 128 | 256 | 8/2 | >256 | 128 | <0.12 | >256 | 256 | Ki ([10]; Example 1, read-out: Ki for AmpC): 0.18 ± 0.02 µM; Ki [10, 17]: 0.6 µM; Ki [1]: > 100 µM; MIC of inhibitor used alone without amoxicillin [8]: 256 µg/mL
